Assays:
[1] = target: T1, DDR2 (Homo sapiens, UniProt Q16832); assay: DDR2 phosphorylation, IP/Western blot in 293T cells expressing wild type DDR2; assay type: cell-based; conditions: 293T cells expressing wild type DDR2, IP anti-DDR2 / blot 4G10
T1 sequence (Q16832 22-855): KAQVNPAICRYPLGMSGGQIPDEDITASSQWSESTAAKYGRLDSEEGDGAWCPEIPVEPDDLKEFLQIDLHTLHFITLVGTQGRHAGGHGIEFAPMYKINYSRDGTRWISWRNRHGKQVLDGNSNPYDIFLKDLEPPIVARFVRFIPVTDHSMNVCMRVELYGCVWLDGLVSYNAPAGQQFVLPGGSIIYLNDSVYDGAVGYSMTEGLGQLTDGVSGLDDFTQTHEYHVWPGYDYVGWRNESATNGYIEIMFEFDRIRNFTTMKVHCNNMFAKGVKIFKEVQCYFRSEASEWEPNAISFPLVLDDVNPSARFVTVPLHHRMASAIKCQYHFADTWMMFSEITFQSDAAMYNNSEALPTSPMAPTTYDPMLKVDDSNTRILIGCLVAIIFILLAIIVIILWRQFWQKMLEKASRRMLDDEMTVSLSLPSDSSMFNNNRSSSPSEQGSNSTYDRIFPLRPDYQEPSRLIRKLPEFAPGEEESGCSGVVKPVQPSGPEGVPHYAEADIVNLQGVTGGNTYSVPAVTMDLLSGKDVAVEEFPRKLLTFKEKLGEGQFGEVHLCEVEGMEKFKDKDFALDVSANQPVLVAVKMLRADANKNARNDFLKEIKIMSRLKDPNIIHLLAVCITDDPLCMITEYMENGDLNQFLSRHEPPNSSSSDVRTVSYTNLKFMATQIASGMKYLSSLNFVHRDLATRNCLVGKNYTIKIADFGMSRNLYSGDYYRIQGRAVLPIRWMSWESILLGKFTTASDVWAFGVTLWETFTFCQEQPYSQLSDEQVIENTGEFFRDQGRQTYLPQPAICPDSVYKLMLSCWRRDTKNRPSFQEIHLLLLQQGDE

[2] = system: NCI-H2286 and HCC-366; assay: Cell proliferation assays in DDR2 mutated cell lines; assay type: cell-based; conditions: NCI-H2286 and HCC-366, 5 days, single agent

effect on p-DDR2 [1] | SMILES | antiproliferative potency in DDR2 mutated cell lines [2]
potent inhibition | Cc1nc(Nc2ncc(C(=O)Nc3c(C)cccc3Cl)s2)cc(N2CCN(CCO)CC2)n1 [Dasatinib] | –
– | CN1CCN(CCOc2cc(OC3CCOCC3)c3c(Nc4c(Cl)ccc5c4OCO5)ncnc3c2)CC1 [Saracatinib] | greater inhibition of cell proliferation as compared to compound 1
